Target: Mtb TPP (Mycobacterium tuberculosis, UniProt P9WFZ5)
Assay type: biochemical

Chain of Mtb TPP (P9WFZ5 whole entry, looked up): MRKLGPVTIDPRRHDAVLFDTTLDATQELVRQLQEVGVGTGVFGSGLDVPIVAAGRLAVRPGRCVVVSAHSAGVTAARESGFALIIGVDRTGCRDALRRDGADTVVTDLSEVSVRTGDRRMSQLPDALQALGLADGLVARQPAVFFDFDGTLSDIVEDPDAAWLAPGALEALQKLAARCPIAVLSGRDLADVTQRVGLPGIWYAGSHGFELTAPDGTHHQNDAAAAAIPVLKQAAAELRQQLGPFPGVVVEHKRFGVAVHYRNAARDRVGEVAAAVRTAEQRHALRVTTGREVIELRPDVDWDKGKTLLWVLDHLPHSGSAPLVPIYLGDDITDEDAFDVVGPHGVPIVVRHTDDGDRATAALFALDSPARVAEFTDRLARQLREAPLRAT

## O=P(O)(O)C[C@H]1O[C@H](O[C@H]2O[C@H](CO)[C@@H](O)[C@H](O)[C@H]2O)[C@H](O)[C@@H](O)[C@@H]1O [TMP, 6-Deoxy-6-(phosphonic acid)-α,α’-trehalose]
  IC50 fold worse than the determined T6P KM, Mtb TPP: 2.8 fold

Reference: publication PMC6467533 (Chembiochem : a European journal of chemical biology, 2018)
